Assay results as given in patent US20230141887A1, “CRYSTAL FORM OF DIAZASPIROPYRAN COMPOUND” (MEDSHINE DISCOVERY INC., priority 2020, published 2023).
In brackets after ≈: the same amount, converted by molar mass. One block for each compound: values may come before it.

Tests used:
[1] = In vivo pharmacokinetic assay in rats; design: species or system SD male rats
Method: SD male rats aged 7 to 10 weeks were selected. The rats were fasted for at least 12 hours before the administration, and resumed feeding 4 hours after the administration. The rats had free access to water throughout the assay period.
(§1) On the day of the assay, the animals in the intravenous group were administrated the corresponding compound through a single injection in the tail vein at an administration volume of 5 mL/kg; the oral group were administrated the corresponding compound through a single intragastric gavage at an administration volume of 10 mL/kg. The animals were weighed before administration, and the administration volume was calculated based on the body weight. The time for collecting samples was: 0.083 (the injection group), 0.25, 0.5, 1, 2, 4, 6, 8, 24 h. About 200 μL of whole blood was collected from the jugular vein at each time point to prepare plasma for concentration determination by high-performance liquid chromatography-tandem mass spectrometry (LC-MS/MS). All animals were euthanized by CO2 anesthesia after collecting the PK samples at the last time point. The plasma concentrations were processed by non-compartmental model of WinNonlin™ Version 6.3 (Pharsight, Mountain View, Calif.) pharmacokinetic software, and the pharmacokinetic parameters were calculated by the linear logarithm trapezoidal method.

[2] = tested on: Ba/F3-TEL-FLT3-D835Y subcutaneous allograft tumor; assay: Pharmacodynamics assay of Ba/F3-TEL-FLT3-D835Y cells in mice with subcutaneous allograft tumor; assay type: in vivo; details: for Average tumor volume Day 0: Day 0, before dosing; for % Inhibition rate / Average tumor volume Day 15: Oral, Once a day
Method: The efficacy of the assay compounds in the BALB/c nude mouse model of subcutaneous allografts of Ba/F3-TEL-FLT3-D835Y cells was evaluated in vivo.
Ba/F3-TEL-FLT3-D835Y cell line was cultured in 1640 medium supplemented with 10% fetal bovine serum and 1% double antibody at 37° C. and 5% CO2, and passaged twice a week. […].
When the cells in the logarithmic growth phase reached the required number for the assay, the cells were harvested, and centrifuged at 1000 rpm for 5 min. The supernatant was removed. The cells were resuspended in culture medium, and counted using a cell counter. […]. After mixing well, the suspension was placed on ice and aspirated with a 1 ml sterile syringe. 0.2 ml of cell suspension was inoculated subcutaneously in the right armpit of each mouse. That is, each mouse was inoculated with 1×10^6 Ba/F3-TEL-FLT3-D835Y cells. After inoculation, the tumor growth was observed day by day. The mice were randomly grouped according to tumor volume when the average tumor volume reached about 175.77 mm^3. Mice were dosed according to their body weight (10 μL/g).
After the start of dosing, the body weight and tumor size of the mice were measured twice a week. Tumor volume was calculated according to the formula: Tumor volume (mm^3)=½×(a×b^2) (where a represents the long diameter and b represents the short diameter).

[3] = Assay of solubility (37° C., 24 hours stirring, HPLC); assay type: physicochemical
Method: Assay method: The crystal form C of the compound of formula (I) was weighed and added to a 4 mL glass vial, and then 2 mL of solvent was added. The mixture was mixed well and a magnet bar was added to the above suspension. The suspension was stirred on a heater with magnetic stirring (37° C., protected from light). After 24 hours of stirring, a sample was taken. The resulting sample solution was quickly centrifuged. The supernatant was diluted to the appropriate multiple, and the concentration was determined by HPLC (unit: mg/mL).

[4] = In vivo pharmacokinetic assay in dogs; design: species or system Male Beagle dogs; details: Oral, 30 mg/kg
Method: Male Beagle dogs older than 6 months of age were selected. On the day of the assay, the animals were given the corresponding compound by single injection in the cephalic or saphenous vein in a volume of 1 mL/kg for the intravenous group; and by single gavage in a volume of 5 mL/kg for the oral group. The animals were weighed before administration and the dosing volume of the compound was calculated based on their body weight. About 0.5 mL of whole blood was collected from the cephalic or saphenous vein at each time point to prepare plasma for determination of concentrations by high performance liquid chromatography-tandem mass spectrometry (LC-MS/MS). Plasma concentrations were processed using non-compartment model of WinNonlin™ Version 6.3 or above (Pharsight, Mountain View, Calif.) pharmacokinetic software, and pharmacokinetic parameters were calculated using the linear log trapezoidal method.

[5] = In vivo pharmacokinetic assay in mice; design: species or system CD-1 male mice; details: male, CD-1, mouse, plasma; for Tmax: read-out: Tmax; for Vd: read-out: Vdss
Method: CD-1 male mice aged 7 to 10 weeks were selected. The doses for intravenous and oral administration were 1 mg/kg and 2.5 mg/kg, respectively. The mice were fasted for at least 12 hours before the administration, and resumed feeding 4 hours after the administration. The mice had free access to water throughout the assay period.
as §1, with “4,” for “4, 6,”, “30” for “200”, “saphenous” for “jugular”

[6] = tested on: human acute myeloma MOLM-13 cell line subcutaneous xenograft; assay: Inhibition of Molm-13 subcutaneous xenograft tumor in vivo; design: species or system NOD/SCID female mice; details: for Average tumor volume Day 0: Day 0, before dosing; for % Inhibition rate on day 11 / % Inhibition rate on day 15 / Average tumor volume Day 11 / Average tumor volume Day 15: Oral, Once a day
Method: The purpose of this assay is to evaluate the pharmacodynamics of the compounds in the NOD/SCID female mice model of human acute myeloma MOLM-13 cell line subcutaneous xenograft.
MOLM-13 cells were cultured in RPMI-1640 medium containing 10% fetal bovine serum. The MOLM-13 cells were collected in the exponential growth phase, and resuspended in PBS to a suitable concentration for subcutaneous tumor inoculation in […].
The assay mice were inoculated with 5×10^6 MOLM-13 cells resuspended in 0.1 ml of PBS (0.1 ml per mouse) subcutaneously on the right back. Tumor growth was regularly observed. When the tumor grew to an average volume of 98 mm^3, the mice were randomly divided into groups and administered according to tumor size and body weight of the mice.
After the start of administration, the body weight and tumor size of the mice were measured three times a week. The formula for calculating the tumor volume is: tumor volume (mm^3)=½×(a×b^2) (where a represents the long diameter and b represents the short diameter).

[7] = tested on: human biphenotypic B bone marrow mononuclear leukemia cell MV4-11 subcutaneous xenograft tumor; assay: Inhibition of MV4-11 subcutaneous xenograft tumor in vivo; design: species or system nude mice
Method: In this assay, the anti-tumor effect of the compounds was evaluated using a nude mice model of subcutaneous xenograft tumor of human biphenotypic B bone marrow mononuclear leukemia cell MV4-11.
Human biphenotypic B bone marrow mononuclear leukemia cell MV4-11 was cultured in vitro in suspension with a RPMI1640 medium supplemented with 10% fetal bovine serum, 100 U/mL penicillin and 100 μg/mL streptomycin in a 5% CO2 cell incubator at 37° C. Routine passaging was performed twice a week. Cells in the logarithmic growth phase were collected, counted and then used for inoculation.
0.2 mL (1×10^7) of MV4-11 cells (plus matrigel, with a volume ratio of 1:1) were inoculated subcutaneously on the right back of each mouse. The grouping and dosing were started when the average tumor volume reached about 140-200 mm^3.
The diameter of the tumor was measured with vernier calipers twice a week. The formula for calculating the tumor volume is: V=0.5a×b^2, where a and b represent the long and short diameters of the tumor, respectively.

[8] = Oral administration (2.5 mg/kg)
[9] = male, SD, rat, plasma, Oral, 2.5 mg/kg
[10] = male, SD, rat, plasma, iv, Injection, 1 mg/kg

SMILES: CCc1nc(C(N)=O)c(Nc2ccc(N3CCC4(CCN(C)CC4)CC3)c(C)c2)nc1NC1CCOCC1
Cmax ([1]; Oral, 20 mg/kg): 483 nM
F% ([1]; Oral, 20 mg/kg): 93%
Tmax ([1]; Oral, 20 mg/kg): 7.00 h
Average tumor volume Day 0 ([2]; 1 mg/kg group): 176 ± 2 mm^3
% Inhibition rate ([2]; 1 mg/kg): 62%
Average tumor volume Day 15 ([2]; 1 mg/kg): 1160 ± 99 mm^3
Average tumor volume Day 0 ([2]; 3 mg/kg group): 177 ± 2 mm^3
% Inhibition rate ([2]; 3 mg/kg): 80%
Average tumor volume Day 15 ([2]; 3 mg/kg): 683 ± 45 mm^3
Average tumor volume Day 0 ([2]; 6 mg/kg group): 177 ± 2 mm^3
% Inhibition rate ([2]; 6 mg/kg): 103%
Average tumor volume Day 15 ([2]; 6 mg/kg): 77 ± 13 mm^3
Solubility ([3]; Biological medium FaSSIF, 37° C.): 110 µg/mL (≈ 211 µM)
Solubility ([3]; Biological medium FeSSIF, 37° C.): 1110 µg/mL (≈ 2130 µM)
Solubility ([3]; Biological medium SGF, 37° C.): 1490 µg/mL (≈ 2860 µM)
Solubility ([3]; Buffer solution pH 1.0, 37° C.): >10000 µg/mL
Solubility ([3]; Buffer solution pH 3.8, 37° C.): >10000 µg/mL
Solubility ([3]; Buffer solution pH 4.5, 37° C.): >10000 µg/mL
Solubility ([3]; Buffer solution pH 5.5, 37° C.): 810 µg/mL (≈ 1550 µM)
Cmax [4]: 527 nM
F% [4]: 41.0%
Tmax [4]: 9.00 h

AUC(0-t) [5, 8]: 0.0745 µM·h
Cmax [5, 8]: 13.4 nM
bioavailability [5, 8]: 7.39%
half-life [5, 8]: 7.57 h
Tmax [5, 8]: 1 h
AUC(0-t) ([5]; iv, Injection (1 mg/kg)): 0.403 µM·h
clearance ([5]; iv, Injection (1 mg/kg)): 73.4 mL/min/kg
half-life ([5]; iv, Injection (1 mg/kg)): 2.13 h
Vd ([5]; iv, Injection (1 mg/kg)): 8.93 L/kg
SMILES: CCc1nc(C(N)=O)c(Nc2ccc(N3CCC4(CCN(C)CC4)CC3)c(OC)c2)nc1NC1CCOCC1 [Compound A]

AUC(0-t) [1, 9]: 0.361 µM·h
Cmax [1, 9]: 29.1 nM
bioavailability [1, 9]: 24.6%
Tmax ([1]; male, SD, rat, plasma, Oral, 2.5 mg/kg, read-out: Tmax): 6 h
AUC(0-t) [1, 10]: 0.587 µM·h
clearance [1, 10]: 44 mL/min/kg
half-life [1, 10]: 2.73 h
Vd ([1]; male, SD, rat, plasma, iv, Injection, 1 mg/kg, read-out: Vdss): 10.2 L/kg
AUC(0-t) [5, 8]: 0.501 µM·h
Cmax [5, 8]: 85.3 nM
bioavailability [5, 8]: 33.1%
half-life [5, 8]: 5.59 h
Tmax [5, 8]: 1 h
AUC(0-t) ([5]; iv, Injection (1 mg/kg)): 0.605 µM·h
clearance ([5]; iv, Injection (1 mg/kg)): 46.7 mL/min/kg
half-life ([5]; iv, Injection (1 mg/kg)): 2.09 h
Vd ([5]; iv, Injection (1 mg/kg)): 7.47 L/kg
SMILES: CCc1nc(C(N)=O)c(Nc2ccc(N3CCC(N4CCN(C)CC4)CC3)c(OC)c2)nc1NC1CCOCC1 [Compound B, reference compound]
Average tumor volume Day 0 ([2]; 3 mg/kg group): 176 ± 2 mm^3
% Inhibition rate ([2]; 3 mg/kg): 68%
Average tumor volume Day 15 ([2]; 3 mg/kg): 993 ± 79 mm^3
Average tumor volume Day 0 ([6]; 15 mg/kg group): 98.02 mm^3
% Inhibition rate on day 11 ([6]; 15 mg/kg): 59%
% Inhibition rate on day 15 ([6]; 15 mg/kg): 79%
Average tumor volume Day 11 ([6]; 15 mg/kg): 401.07 mm^3
Average tumor volume Day 15 ([6]; 15 mg/kg): 566.95 mm^3
% Inhibition rate on day 14 ([7]; 1.5 mg/kg, Oral, Once a day): 57.7%
Average tumor volume Day 14 ([7]; 1.5 mg/kg, Oral, Once a day, Day 14): 431 mm^3
Average tumor volume Day 0 ([7]; Day 0, one value for all groups, before dosing): 149 mm^3

SMILES: CCc1nc(C(N)=O)c(Nc2ccc(N3CCC4(CCN(C)CC4)CC3)c(C)c2)nc1NC1CCOCC1 [Compound of formula (I)]
Average tumor volume Day 0 ([6]; 15 mg/kg group): 98.34 mm^3
% Inhibition rate on day 11 ([6]; 15 mg/kg): 92%
% Inhibition rate on day 15 ([6]; 15 mg/kg): 94%
Average tumor volume Day 11 ([6]; 15 mg/kg): 156.85 mm^3
Average tumor volume Day 15 ([6]; 15 mg/kg): 223.09 mm^3
Average tumor volume Day 0 ([6]; 50 mg/kg group): 98.05 mm^3
% Inhibition rate on day 11 ([6]; 50 mg/kg): 106%
% Inhibition rate on day 15 ([6]; 50 mg/kg): 104%
Average tumor volume Day 11 ([6]; 50 mg/kg): 53.08 mm^3
Average tumor volume Day 15 ([6]; 50 mg/kg): 0 mm^3
